Test results as given in ChEMBL document CHEMBL5046265, “Synthesis of Hemiprotonic Phenanthroline-Phenanthroline+ Compounds with both Antitumor and Antimicrobial Activity” (J Med Chem, 2022).
Active and inactive are the calls of the source.

Tests used:
Format in all cases: functional, organism-based
Conditions in all cases: time 9.0 day
Mus musculus [1] = experiment: Anti-Cryptococcal activity against Cryptococcus neoformans infected pneumonia and encephalitis C57BL/6J mouse model assessed as increase in body weight at 8 mg/kg, iv administered once a day for 9 days
Mus musculus [2] = experiment: Anti-Cryptococcal activity against Cryptococcus neoformans infected pneumonia and encephalitis C57BL/6J mouse model assessed as reduction in pneumonia symptoms at 8 mg/kg, iv administered once a day for 9 days and measured at 24 hrs at last post-dosage
Mus musculus [3] = experiment: Anti-Cryptococcal activity against Cryptococcus neoformans infected pneumonia and encephalitis C57BL/6J mouse model assessed as reduction in brain edema at 8 mg/kg, iv administered once a day for 9 days and measured at 24 hrs at last post-dosage
Mus musculus [4] = experiment: Anti-Cryptococcal activity against Cryptococcus neoformans infected pneumonia and encephalitis C57BL/6J mouse model assessed as improvement in clinical symptoms at 8 mg/kg, iv administered once a day for 9 days

Measured: Activity

OC(Cn1cncn1)(Cn1cncn1)c1ccc(F)cc1F
active: all assays above
